Where two headings read alike, the source gives them in different places.
Legend:
B cell hybridoma (MBI-9) = assay: 3H-thymidine incorporation into DNA of B cell hybridoma; format: cell-based, murine; settings: Mus musculus, 48 hr incubation, read-out: IC50 estimated by extrapolation
Vero cells = settings: African green monkey, 9 mM
Cytomegalovirus (CMV) = assay: CMV infectious center assay in MRC-5 cells; format: cell-based, human cytomegalovirus (Towne strain)
HSV-2 [1] = assay: Topical treatment of HSV-2 in guinea pig model, number of vesicles (Example 9); format: in vivo, hairless guinea pigs; settings: mean; for Number of Vesicles Day 2: 48 hr post-inoculation; for Number of Vesicles Day 3: 72 hr post-inoculation; for Number of Vesicles Day 4: 96 hr post-inoculation
[2] = male, hairless, guinea pig, in vivo, 2 day
[3] = Inflammation or toxicity at treated skin sites (Example 15); settings: 96 hours, alone or in combination
HSV-2 [4] = assay: Inhibition of HSV-2 plaque formation in Vero cells
[5] = test system: human foreskin fibroblasts; assay: Cell proliferation (cytostasis), sulforhodamine staining; format: cell-based; settings: 1,000 cells/well, 96-hours incubation
Description: The effects of n-docosanol and n-docosane suspensions on cell proliferation (cytostasis) were quantitated using the sulforhodamine staining assay on cultures of human foreskin fibroblasts incubated in 96-well plates.
Foreskin fibroblasts were plated with or without aliphatic alcohol suspensions or control surfactant suspensions at 1,000 cells/well (FIG. 6A and FIG. 7) or at 30,000 cells/well (FIG. 6B) in 96 well plates. After incubation for 72 hr or 96 hr at 37° C., cells were precipitated with trichloroacetic acid, stained with sulforhodamine and quantitated by measuring the OD540 in a microtiter plate reader.

Fetal Foreskin Cells = assay: Cell viability by trypan blue exclusion, fetal foreskin cells; format: cell-based, human; settings: for Fetal Foreskin Cells No. Viable: 9 mM n-docosanol in 1.4 mM surfactant (4:1 w:w), trypan blue exclusion; for Fetal Foreskin Cells % Control: 9 mM n-docosanol in 1.4 mM surfactant, control = media only
Description: Typical data are presented in Table 3, showing that the total number of viable Vero cells and foreskin fibroblasts was unchanged after 24 hr to 72 hr incubation with the aliphatic alcohol suspension.

[6] = test system: Early viral protein synthesis; settings: Katz et al. 1991; cited from earlier work
vaccinia virus = assay: microbe, parasite or virus in culture; format: cell-based, vaccinia virus (WR strain); settings: cultures that lacked PFA; 15 mM n-docosanol
all cell lines tested = assay: Cytotoxicity in mammalian cell cultures; settings: read-out: IC50 (cellular toxicity by chain length)
Source text: Three assays were used to quantitate the effects of aliphatic alcohols on cell survival and proliferation: 1) counting cells with a hemocytometer and determining the number of cells that exclude trypan blue; 2) measuring the incorporation of ^3H-thymidine into cellular DNA by adding ^3H-thymidine (from New England Nuclear) to the culture medium, lysing the cells with water and harvesting the DNA onto filter paper; and 3) measuring total cellular protein using a sulforhodamine assay adapted for use in 96-well microtiter plates (Skehan et al., J. Natl. Cancer Inst. […] All of these methods are well known cell viability and cytotoxicity assays.

HSV-1 = HSV-1 PFU production in Vero cell cultures; format: cell-based, HSV-1 (MacIntyre strain)
HSV-2 [7] = assay: Cutaneous HSV-2 model in hairless guinea pigs, combination cream (Example 15); format: in vivo
[8] = test system: Varicella Zoster Virus (VZV); assay: VZV infectious center assay in MRC-5 cells; format: cell-based, human varicella zoster virus (Ellen strain); settings: for IC per Culture × 10^−4: no ACV, medium only 35
[9] = Human betaherpesvirus 5, MRC5, read-out: % Inhibition of infected cells
[10] = Human alphaherpesvirus 2, Vero, read-out: Percent Inhibition of Plaque Formation

CCCCCCCCCCCCCCCCCCCCCCO [n-docosanol]
IC50 (B cell hybridoma (MBI-9)): ~20 mM
Vero Cells % Control (Vero cells; 24 h): 101%
Vero Cells No. Viable (Vero cells; 24 h): 7.48 × 10^5
Vero Cells % Control (Vero cells; 48 h): 137%
Vero Cells No. Viable (Vero cells; 48 h): 8.69 × 10^5
Vero Cells % Control (Vero cells; 72 h): 120%
Vero Cells No. Viable (Vero cells; 72 h): 8.61 × 10^5
inhibition at 3300 µM (Cytomegalovirus (CMV); [9]): 20%
inhibition at 10000 µM (Cytomegalovirus (CMV); [9]): 60%
inhibition at 30000 µM (Cytomegalovirus (CMV); [9]): 85%
EC50 (Cytomegalovirus (CMV); Human betaherpesvirus 5, MRC5, read-out: n-docosanol EC50 for inhibition of CMV replication, MRC-5 cells): ~10 mM
Number of Vesicles Day 2 (HSV-2 [1]; 10% w/w cream topically 3X/day from 24 hr post-inoculation): 40
Number of Vesicles Day 3 (HSV-2 [1]; 10% w/w cream topically 3X/day): 12
Number of Vesicles Day 4 (HSV-2 [1]; 10% w/w cream topically 3X/day): 3
Number of Vesicles Day 2 (HSV-2 [1]; 10% w/w cream topically 5X/day): 43
Number of Vesicles Day 3 (HSV-2 [1]; 10% w/w cream topically 5X/day): 5
Number of Vesicles Day 4 (HSV-2 [1]; 10% w/w cream topically 5X/day): 3
Irritation Score Day 2 [2]: 0
induced inflammation or toxicity [3]: not detected
fewer plaques than untreated or PLURONIC F-68-treated controls (HSV-2 [4]; 3 mM n-docosanol, without ACV): 40%
EC50 (HSV-2 [4]; Human alphaherpesvirus 2, Vero, read-out: 50% Inhibition Concentration (mM)): 8.6 mM
EC50 (HSV-2 [4]; Human alphaherpesvirus 2, Vero, read-out: EC50 of plaque formation inhibition, octoxynol (TRITON X-100) suspension): ~4.5 mM
inhibition at 1000 µM (HSV-2 [4]; [10]): 14%
inhibition at 2000 µM (HSV-2 [4]; [10]): 40%
inhibition at 4000 µM (HSV-2 [4]; [10]): 36%
inhibition at 8000 µM (HSV-2 [4]; [10]): 44%
inhibition at 15000 µM (HSV-2 [4]; [10]): 66%
EC50 (HSV-2 [4]; Human alphaherpesvirus 2, Vero, read-out: amount of n-docosanol required for 50% inhibition of plaque production, after increasing the ratio of surfactant to n-docosanol): 3 mM
EC50 (HSV-2 [4]; Human alphaherpesvirus 2, Vero, read-out: amount of n-docosanol required for 50% inhibition of plaque production, before increasing the ratio of surfactant to n-docosanol): 15 mM
EC50 (HSV-2 [4]; Human alphaherpesvirus 2, Vero, read-out: effective concentration required to inhibit plaque formation by 50% (EC50), surfactant suspension, Example 5): 9 mM
EC50 (HSV-2 [4]; Human alphaherpesvirus 2, Vero, read-out: n-docosanol EC50, HSV-2 plaque formation, in conjunction with ACV in the range of 0.2-10 μM): 2 to 3 mM
EC50 (HSV-2 [4]; Human alphaherpesvirus 2, Vero, read-out: n-docosanol EC50, HSV-2 plaque formation, used alone): 2 to 3 mM
n-docosanol concentrations inhibiting plaque formation relative to octoxynol control (HSV-2 [4]; octoxynol (TRITON X-100) suspension): greater than or equal to 2 mM
n-docosanol concentration that inhibited proliferation of cells [5]: greater than 3 mM
Fetal Foreskin Cells No. Viable (Fetal Foreskin Cells; 24 hr): 2.41 × 10^5
Fetal Foreskin Cells No. Viable (Fetal Foreskin Cells; 48 hr): 2.78 × 10^5
Fetal Foreskin Cells No. Viable (Fetal Foreskin Cells; 72 hr): 2.72 × 10^5
Fetal Foreskin Cells % Control (Fetal Foreskin Cells; 24 hr): 131%
Fetal Foreskin Cells % Control (Fetal Foreskin Cells; 48 hr): 118%
Fetal Foreskin Cells % Control (Fetal Foreskin Cells; 72 hr): 118%
inhibition of early viral protein synthesis [6]: more than 80%
inhibition of vaccinia virus replication (in words) (vaccinia virus): does not inhibit replication of vaccinia virus
IC50 (all cell lines tested): > 15 mM
fewer HSV-1 PFU than untreated cultures (HSV-1; 15 mM n-docosanol alone, three days post-infection): about 10 fold
inhibition at 3300 µM (HSV-1; Human alphaherpesvirus 1, Vero, read-out: inhibition of PFU production): 55%
reduction of mean vesicle numbers (HSV-2 [7]; 96 hours post-HSV-2-inoculation, cream two times daily, untreated mean 27 vesicles): 63%
mean AUC (mean number of vesicles times hours vesicles were observed) (HSV-2 [7]; cream two times daily, untreated 698): 464 vesicle hours
inhibition of AUC (HSV-2 [7]; vs untreated AUC 698 vesicle hours): 34%
EC50 ([8]; Human alphaherpesvirus 3, MRC5, MRC-5 cells, read-out: n-docosanol EC50 for inhibition of VZV replication): ~10 mM
inhibition at 3300 µM ([8]; Human alphaherpesvirus 3, MRC5, VZV, n-Docosanol 3.3 mM, read-out: % Inhibition of infected cells): 40%
inhibition at 10000 µM ([8]; Human alphaherpesvirus 3, MRC5, VZV, n-Docosanol 10 mM, read-out: % Inhibition of infected cells): 57%
inhibition at 30000 µM ([8]; Human alphaherpesvirus 3, MRC5, VZV, n-Docosanol 30 mM, read-out: % Inhibition of infected cells): 80%
IC per Culture × 10^−4 ([8]; VZV, n-Docosanol 3.3 mM): 21 × 10^−4
IC per Culture × 10^−4 ([8]; VZV, n-Docosanol 10 mM): 15 × 10^−4
IC per Culture × 10^−4 ([8]; VZV, n-Docosanol 30 mM): 7 × 10^−4
